“Also recorded” adds a separate entry of the source. Read-outs that look alike come from different tables or passages of the source.
Key:
acetylcholinesterase = acetylcholinesterase (Homo sapiens (Human), UniProt P22303); assay: biochemical; type: biochemical; conditions: for potency on acetylcholinesterase compared with positive control drug donepezil hydrochloride: in vitro, enzymology level; for IC50: read-out: IC50 (nM), inhibition activity on acetylcholinesterase
in vivo = conditions: mouse, in vivo
Experimental: (§1) Firstly, preliminary tests were performed, in order to determine the concentration of each compound, with just 0% mortality or just 100% mortality, before starting the formal tests. The animals were divided into groups by weight, various dosages of drugs were administered between 0%-100%. Dosage volume: 10 ml/kg. Dosage manner: intravenous injection or intragastric administration.
(§2) The animals were divided into 6 groups, with 5 animals per group.
(§3) The animals were divided into 6 groups, with 5 animals per group. […] Each animal was fasted 12 h before administration.
(§4) The animals were divided into 5 groups, with 5 animals per group.
(§5) The animals were divided into 5 groups, with 5 animals per group. […] Each animal was fasted 12 h before administration.
(§6) The toxic reaction and death of the animals after administration were observed, and mortality was counted. The results were analyzed with LD50 data processing software.

white mice = assay: in vivo; conditions: for Mortality (%) / Number of death: 5 animals; for toxicity compared with donepezil hydrochloride: preliminary acute toxicity tests
Experimental: as §1, §2, §3, §4, §5, §6

[1] = system: learning and memory disorder induced by intracerebroventricular injection of Aβ1-42; assay: Morris water maze test, rats with intracerebroventricular injection of Aβ1-42; type: in vivo; conditions: for The period of reaching the platform for the first time (latent period) / times of crossing platform: 8 days
Experimental: The model of learning and memory disorder induced after intracerebroventricular injection of Aβ1-42 is the most common animal model for evaluating whether a compound has the effect of improving the learning and memory. […] Morris water maze test and the model of learning and memory disorder induced by intracerebroventricular injection of Aβ1-42 were employed in the present research, and the improvement effects of I-33 on learning and memory of rats at various concentration (0.7 mg/Kg, 3.5 mg/Kg, and 7 mg/Kg) were evaluated.
SD, male (220±20 g), the animals were fed in light: dark cycle (12 h/12 h) in a cleaning level of animal room, ad lib. The tests were performed after 3 days acclimation in the animal room. Aβ1-42 was formulated to 2 μg/μl according to the instruction of specification.
(1) Normal group: intracerebroventricular injection of physiological saline
(2) Model group with intracerebroventricular injection of Aβ1-42: intracerebroventricular injection of Aβ1-42
(4) I-33 (low concentration group): I-33 (0.7 mg/Kg)+intracerebroventricular injection of Aβ1-42
(5) I-33 (medium concentration group): I-33 (3.5 mg/Kg)+intracerebroventricular injection of Aβ1-42
(6) I-33 (high concentration group): I-33 (7 mg/Kg)+intracerebroventricular injection of Aβ1-42
Each rat in normal control group received intracerebroventricular injection of 5 μl of physiological saline, each rat in the other groups received intracerebroventricular injection of 5 μl of Aβ1-42. After the operation, the rats received the following tests after 1 week recovery period. […] The drugs were administered for 8 days, the training for water maze test was started on the 5th day, and the water maze test was formally started on the 9th day.

[2] = Experimental: 0.3 ml of whole blood was collected at corresponding time point, anticoagulating with heparin, centrifuged at 4000 rpm for 10 min, the plasma was separated, 50 μL the plasma sample of rats was collected, 100 μL acetonitrile (containing 0.1% formic acid) was added, mixed under vortex for 1 min, centrifuged (12000 rpm) for 10 min, the supernatant was collected, analyzed with liquid chromatography-mass spectrometer, the area of peaks were recorded and used for the calculation of blood drug concentration, and the drug-time curve was plotted.
[3] = system: learning and memory disorder of mice induced by scopolamine; assay: Morris water maze test, senile dementia mice model induced by scopolamine; type: in vivo; conditions: Table 4; 5 mg/kg intragastric; scopolamine 1 mg/kg
malonaldehyde (MDA) = assay: Biochemical indicators of brain tissues (MDA assay) in scopolamine mice; type: in vivo; conditions: brain tissue homogenate, 5 mg/kg
Experimental: After the behavior test was complete, the mice were sacrificed, brain tissues were collected (operated on an ice plate) and prepared into 10% of tissue homogenate with pre-cooled physiological saline, centrifuged (3000 rpm, 10 min), and the supernatant was subjected to malonaldehyde (MDA) assay following the kits.

[4] = Intragastric administration 215.23 mg/kg
[5] = Intragastric administration 239.15 mg/kg
[6] = Intragastric administration 265.72 mg/kg
[7] = Intragastric administration 295.25 mg/kg
[8] = Intragastric administration 450.00 mg/kg
[9] = Intragastric administration 500.00 mg/kg
[10] = Intravenous injection 16.18 mg/kg
[11] = Intravenous injection 20.48 mg/kg
[12] = Intravenous injection 25.60 mg/kg
[13] = Intravenous injection 32.00 mg/kg
[14] = Intravenous injection 40.00 mg/kg
[15] = Intravenous injection 50.00 mg/kg
[16] = Aβ1-42 rats, DPH 3 mg/Kg, I-33 all dosages tested
[17] = high concentration 7 mg/Kg intragastric, Aβ1-42 rats
[18] = low concentration 0.7 mg/Kg intragastric, Aβ1-42 rats
[19] = medium concentration 3.5 mg/Kg intragastric, Aβ1-42 rats
[20] = Intragastric administration 122.88 mg/kg
[21] = Intragastric administration 153.60 mg/kg
[22] = Intragastric administration 240.00 mg/kg
[23] = Intragastric administration 300.00 mg/kg
[24] = Intravenous injection 16.40 mg/kg
[25] = Intravenous injection 18.23 mg/kg
[26] = Intravenous injection 20.25 mg/kg
[27] = Intravenous injection 23.04 mg/kg

Chain of acetylcholinesterase (P22303 32-614, species assumed): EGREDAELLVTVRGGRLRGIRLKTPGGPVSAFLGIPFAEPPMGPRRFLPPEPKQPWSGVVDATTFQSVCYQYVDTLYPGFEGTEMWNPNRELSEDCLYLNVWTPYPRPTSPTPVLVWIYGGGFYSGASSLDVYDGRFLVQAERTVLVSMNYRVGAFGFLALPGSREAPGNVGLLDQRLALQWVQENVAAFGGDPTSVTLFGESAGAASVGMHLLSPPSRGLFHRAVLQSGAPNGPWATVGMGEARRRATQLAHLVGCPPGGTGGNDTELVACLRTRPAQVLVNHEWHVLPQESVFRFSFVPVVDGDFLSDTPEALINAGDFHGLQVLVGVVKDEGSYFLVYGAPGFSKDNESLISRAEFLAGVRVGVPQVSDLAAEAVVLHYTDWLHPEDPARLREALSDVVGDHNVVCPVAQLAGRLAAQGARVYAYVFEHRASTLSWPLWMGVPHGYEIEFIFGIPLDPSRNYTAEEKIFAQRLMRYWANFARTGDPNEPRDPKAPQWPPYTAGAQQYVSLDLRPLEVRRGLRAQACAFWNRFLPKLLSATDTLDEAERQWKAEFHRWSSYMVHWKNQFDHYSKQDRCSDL

Cl.O=C1c2cc3c(cc2C2(CC2)N1CCC1CCN(Cc2ccccn2)CC1)OCO3 [Compound I-33, 6-[2-[1-(2-pyridylmethyl)-4-piperidyl]ethyl]spiro[[1,3]dioxolo[4,5-f]isoindole-7,1′-cyclopropane]-5-one hydrochloride]
potency on acetylcholinesterase compared with positive control drug donepezil hydrochloride (acetylcholinesterase): even lower
IC50 (acetylcholinesterase): 950 nM
LD50 (in vivo; iv): 31.3 mg/kg
LD50 (in vivo; po): 303 mg/kg
Mortality (%) (white mice; [4]): 0%
Number of death (white mice; [4]): 0
Mortality (%) (white mice; [5]): 0%
Number of death (white mice; [5]): 1
Mortality (%) (white mice; [6]): 40%
Number of death (white mice; [6]): 2
Mortality (%) (white mice; [7]): 60%
Number of death (white mice; [7]): 3
Mortality (%) (white mice; [8]): 80%
Number of death (white mice; [8]): 4
Mortality (%) (white mice; [9]): 100%
Number of death (white mice; [9]): 5
Mortality (%) (white mice; [10]): 0%
Number of death (white mice; [10]): 0
Mortality (%) (white mice; [11]): 0%
Number of death (white mice; [11]): 0
Mortality (%) (white mice; [12]): 20%
Number of death (white mice; [12]): 1
Mortality (%) (white mice; [13]): 60%
Number of death (white mice; [13]): 3
Mortality (%) (white mice; [14]): 80%
Number of death (white mice; [14]): 4
Mortality (%) (white mice; [15]): 100%
Number of death (white mice; [15]): 5
median lethal dose by oral and intravenous administration, times of those of donepezil hydrochloride (white mice): 8-10 times
toxicity compared with donepezil hydrochloride (white mice; hydrochloride): lower toxicity than donepezil hydrochloride; also recorded: much lower toxicity
effect on period required for reaching the platform for the first time (latent period) [1, 16]: significantly shorten the period required for reaching the platform for the first time
effect on times of crossing the platform [1, 16]: significantly increases the times of crossing the platform
improvement of learning and memory disorder of rats induced by Aβ1-42 ([1]; Morris water maze, 0.7, 3.5 and 7 mg/Kg, hydrochloride): significantly improve the learning and memory disorder of rats induced by intracerebroventricular injection of Aβ1-42; also recorded: stronger effects of improving learning and memory
The period of reaching the platform for the first time (latent period) [1, 17]: 14.87 ± 3.62
times of crossing platform [1, 17]: 3.20 ± 0.36
The period of reaching the platform for the first time (latent period) [1, 18]: 21.37 ± 3.64
times of crossing platform [1, 18]: 3.00 ± 0.33
The period of reaching the platform for the first time (latent period) [1, 19]: 18.10 ± 6.54
times of crossing platform [1, 19]: 3.40 ± 0.43
t1/2z ([2]; rat plasma, oral 5 mg/kg): 2.085 ± 0.392
absorption degree (AUC) and peak concentration (Cmax) compared with donepezil hydrochloride ([2]; rat, oral, same dosage 5 mg/kg): significantly higher than those of donepezil hydrochloride

O=C1c2cc3c(cc2C2(CC2)N1CCC1CCN(Cc2ccccn2)CC1)OCO3 [Compound I-35, 6-[2-[1-(2-pyridylmethyl)-4-piperidyl]ethyl]spiro[[1,3]dioxolo[4,5-f]isoindole-7,1′-cyclopropane]-5-one phosphate]
IC50 (acetylcholinesterase; modified Ellman method): 601 nM
MRT(0-t) ([2]; rat, in vivo, po, 5 mg/kg): 2.343 ± 0.206
MRT(0-∞) ([2]; rat, in vivo, po, 5 mg/kg): 2.483 ± 0.265
t1/2z ([2]; rat, in vivo, po, 5 mg/kg): 1.965 ± 0.296

CC1(C)c2cc3c(cc2C(=O)N1CCC1CCN(Cc2cccc(F)c2)CC1)OCO3 [Compound I-15, 6-[2-[1-[(3-fluorophenyl)methyl]-4-piperidyl]ethyl]-7,7-dimethyl-[1,3]dioxolo[4,5-f]isoindol-5-one]
potency on acetylcholinesterase compared with positive control drug donepezil hydrochloride (acetylcholinesterase): relative low activity
IC50 (acetylcholinesterase; modified Ellman method): > 2000 nM
latent period day 1 [3]: 60 ± 0 s
latent period day 2 [3]: 58.9 ± 4.4 s
latent period day 3 [3]: 56.5 ± 8.3 s
latent period day 4 [3]: 57.8 ± 5.3 s
latent period day 5 [3]: 51.1 ± 10.9 s
times of crossing platform [3]: 1.9 ± 1.5
MDA(nmol/mgprot) (malonaldehyde (MDA)): 7.41 ± 2.1 nmol/mgprot

Cl.O=C1c2cc3c(cc2C2(CC2)N1CCC1CCN(Cc2ccccc2)CC1)OCO3 [Compound I-34, 6-[2-(1-benzyl-4-piperidyl)ethyl]spiro[[1,3]dioxolo[4,5-f]isoindole-7,1′-cyclopropane]-5-one hydrochloride]
potency on acetylcholinesterase compared with positive control drug donepezil hydrochloride (acetylcholinesterase; hydrochloride): slightly lower potency than the positive control drug; also recorded: comparable inhibition activity on acetylcholinesterase with donepezil hydrochloride
IC50 (acetylcholinesterase): 197 nM
LD50 (in vivo; iv): 20.1 mg/kg
LD50 (in vivo; po): 171 mg/kg
Mortality (%) (white mice; [20]): 0%
Number of death (white mice; [20]): 0
Mortality (%) (white mice; [21]): 40%
Number of death (white mice; [21]): 2
Mortality (%) (white mice; [22]): 80%
Number of death (white mice; [22]): 4
Mortality (%) (white mice; [23]): 100%
Number of death (white mice; [23]): 5
Mortality (%) (white mice; [24]): 0%
Number of death (white mice; [24]): 0
Mortality (%) (white mice; [25]): 20%
Number of death (white mice; [25]): 1
Mortality (%) (white mice; [26]): 60%
Number of death (white mice; [26]): 3
Mortality (%) (white mice; [27]): 80%
Number of death (white mice; [27]): 4
Mortality (%) (white mice; [12]): 100%
Number of death (white mice; [12]): 5
median lethal dose by oral and intravenous administration, times of those of donepezil hydrochloride (white mice): 4-7 times
toxicity compared with donepezil hydrochloride (white mice): lower toxicity than donepezil hydrochloride
